# Experimental data reported in patent US20040010001A1, “Methods and compositions for modulating cell proliferation and cell death” (priority 1999, published 2004).
# Legend:
# rat MAT-LyLu tumor cells = assay: Intracellular drug accumulation with or without CM or r-bFGF; conditions: unchanged with or without CM or r-bFGF; 10 nM paclitaxel, 100 nM doxorubicin, 500 nM 5-fluorouracil
# [1] = system: bladder, breast, head and neck, ovarian and prostate tumors from human patients; assay: Paclitaxel in histocultures of tumors obtained from human patients; type: cell-based; conditions: 96 tumors; bladder 2 hours, remaining tumors 96 hours
# Method: The third study examined the relationship between the levels of aFGF and bFGF in human tumors and tumor sensitivity to anticancer agents. This study was performed using 96 tumors obtained from human patients, including include bladder, breast, head and neck, ovarian and prostate tumors. Paclitaxel was used as the model drug. […] The drug-induced antiproliferation was measured by inhibition of DNA precursor incorporation, and apoptosis was measured by morphological changes and by labeling of nicked DNA. aFGF, bFGF and other proteins known to contribute to drug resistance (i.e. the mdr1 p-glycoprotein, p53 and bcl-2) were detected by immunohistochemical staining.
plateau intracellular concentration (rat MAT-LyLu tumor cells) [pmol/10^6 cells],Compound,tumors in which antiproliferation was produced [1] [%],tumors in which apoptosis was induced [1] [%]
80,COc1cccc2c1C(=O)c1c(O)c3c(c(O)c1C2=O)C[C@@](O)(C(=O)CO)C[C@@H]3O[C@H]1C[C@H](N)[C@H](O)[C@H](C)O1 [Doxorubicin],–,–
–,CC(=O)O[C@H]1C(=O)[C@@]2(C)[C@H]([C@H](OC(=O)c3ccccc3)[C@]3(O)C[C@H](OC(=O)[C@H](O)[C@@H](NC(=O)c4ccccc4)c4ccccc4)C(C)=C1C3(C)C)[C@]1(OC(C)=O)CO[C@@H]1C[C@@H]2O [Paclitaxel],84,96
